Test results taken from ChEMBL document CHEMBL1201862, “PubChem BioAssay data set” (2004).
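Compound exposure: 48 hours, 5 concentrations, 96-well plates. GI50 = concentration required for 50% inhibition of growth.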 Active and inactive are the calls of the source. Rule as the data show it: active = GI50 up to about 1.1 µM and inactive = higher.

What was measured:
Experiment in all cases: DTP human tumour cell line panel, 48 h
A549 = system: A549
CCRF-CEM = system: CCRF-CEM
EKVX = system: EKVX
HCT-116 = system: HCT-116
HOP-62 = system: HOP-62
HT-29 = system: HT-29
Hs-578T = system: Hs-578T
MDA-MB-435 = system: MDA-MB-435
NCI-H460 = system: NCI-H460
NCI/ADR-RES = system: NCI/ADR-RES
OVCAR-8 = system: OVCAR-8
RXF 393 = system: RXF 393
SF-295 = system: SF-295
SK-OV-3 = system: SK-OV-3
SR = system: SR
TK-10 = system: TK-10
UO-31 = system: UO-31
SN12C = system: SN12C
HCC 2998 = system: HCC 2998

Measured: GI50

CC1=Nc2nc3ccccc3n2C(C)(C)C1
inactive: A549 > 100 µM | CCRF-CEM > 100 µM | EKVX > 100 µM | HCT-116 > 100 µM | HOP-62 > 100 µM | HT-29 > 100 µM | Hs-578T > 100 µM | MDA-MB-435 > 100 µM | NCI-H460 > 100 µM | NCI/ADR-RES > 100 µM | OVCAR-8 > 100 µM | RXF 393 > 100 µM | SF-295 > 100 µM | SK-OV-3 > 100 µM | SR > 100 µM | TK-10 > 100 µM | UO-31 > 100 µM

O=C(O)CCNc1ncc2c(n1)-c1ccccc1OC2
inactive: A549 > 100 µM | CCRF-CEM > 100 µM | EKVX 61.7 µM | HCT-116 > 100 µM | HOP-62 > 100 µM | HT-29 > 100 µM | Hs-578T 61 µM | MDA-MB-435 > 100 µM | NCI-H460 > 100 µM | NCI/ADR-RES > 100 µM | OVCAR-8 > 100 µM | RXF 393 > 100 µM | SF-295 > 100 µM | SK-OV-3 > 100 µM | SN12C > 100 µM | SR > 100 µM | TK-10 > 100 µM | UO-31 > 100 µM

CC(C)=CCOC(=O)C(C)=[N+]=[N-]
inactive: EKVX > 100 µM | HCC 2998 > 100 µM | HCT-116 > 100 µM | HOP-62 > 100 µM | HT-29 > 100 µM | Hs-578T > 100 µM | MDA-MB-435 > 100 µM | NCI-H460 > 100 µM | NCI/ADR-RES > 100 µM | OVCAR-8 > 100 µM | SF-295 > 100 µM | SN12C > 100 µM | SR > 100 µM | TK-10 > 100 µM | UO-31 > 100 µM

Nc1nc(Nc2ccccc2)sc1C(=O)c1c[nH]c2ccccc12
inactive: A549 7.52 µM | CCRF-CEM 3.2 µM | EKVX 5.94 µM | HCT-116 6.97 µM | HOP-62 16.7 µM | HT-29 3.73 µM | Hs-578T 16.3 µM | MDA-MB-435 11.2 µM | NCI-H460 4.23 µM | NCI/ADR-RES 12.6 µM | RXF 393 8.49 µM | SK-OV-3 16.6 µM | SN12C 15.7 µM | SR 1.45 µM | TK-10 3.09 µM | UO-31 2.56 µM

Cc1ccc([N+](=O)[O-])cc1S(=O)(=O)Nc1ccc(C2=NN(c3ccc([N+](=O)[O-])cc3[N+](=O)[O-])C(c3cccs3)C2)cc1 (stereo not given)
inactive: A549 19.5 µM | CCRF-CEM 24.5 µM | EKVX 15.8 µM | HCT-116 14.9 µM | HOP-62 19.2 µM | HT-29 25.9 µM | Hs-578T 23.8 µM | MDA-MB-435 21 µM | NCI/ADR-RES 17.2 µM | OVCAR-8 22 µM | RXF 393 18.6 µM | SF-295 25.6 µM | SK-OV-3 26.1 µM | SN12C 18 µM | SR 21 µM | TK-10 30 µM | UO-31 23.8 µM

NC(C(=O)O)C(O)c1c[nH]cn1 (stereo not given)
inactive: A549 > 100 µM | CCRF-CEM > 100 µM | EKVX > 100 µM | HCT-116 > 100 µM | HOP-62 > 100 µM | HT-29 > 100 µM | Hs-578T > 100 µM | MDA-MB-435 > 100 µM | NCI-H460 > 100 µM | NCI/ADR-RES > 100 µM | OVCAR-8 > 100 µM | RXF 393 > 100 µM | SF-295 > 100 µM | SK-OV-3 > 100 µM | SN12C > 100 µM | SR > 100 µM | TK-10 > 100 µM
